One test addresses T1, BRD2-BD2 (Homo sapiens, UniProt P25440).
T1 construct: human BRD2 (BD1: 65-194; BD2: 347-455); Avi tag (biotinylated); made in house; host or cells: E. coli BL21(DE3)
Put plainly: SPR binding of peptides to immobilised biotinylated BET bromodomain. An excerpt: (§1) We next assessed the ability of each of the three lead peptides to bind BRD3-BD1. […] To assess selectivity for other BET BDs, we used SPR to determine the binding affinity of each peptide toward the remaining BDs from BRD2, BRD3, and BRD4 (Fig. 1B). […]
(§2) Crude peptides were purified by reverse-phase high-performance liquid chromatography using a Chromolith Prep column (Merck) on a Prominence LC-20AP system (Shimadzu) (Solvent A: 0.1% TFA in H2O, Solvent B: 0.1% TFA in acetonitrile) to >95% purity as determined by mass spectrometry (Fig. S17). Purified peptides were reconstituted in DMSO and concentrations determined from their absorbance at 280 nm in 5% DMSO using predicted extinction coefficients.
(§3) Surface plasmon resonance (SPR)
(§4) Measurements were conducted on a T200 or S200 (GE Healthcare) and data analysed using the Biacore Insight Evaluation Software. Experiments were performed at 4 °C in single cycle kinetics mode. Biotinylated BET bromodomains were immobilised on a CAP chip (GE Healthcare) with a […]
(§5) pH 7.5 was used as the running buffer. […]
On the technique in general: SPR reads the build-up and loss of mass on a sensor chip optically.

The next test has as its target T2, BRD3-BD1 (Homo sapiens, UniProt Q15059).
T2 construct: BRD3 (BD1: 25-147); Avi tag (biotinylated); made in house; host or cells: E. coli BL21(DE3)
Described as above.
Excerpt: as §1, §2, §3, §4, §5

For the next test, the target named is T3, BAZ2A (Homo sapiens, UniProt Q9UIF9).
T3 construct: purchased Eurofins DiscoverX (BROMOscan, BromoMAX)
T3 sequence (Q9UIF9 whole entry): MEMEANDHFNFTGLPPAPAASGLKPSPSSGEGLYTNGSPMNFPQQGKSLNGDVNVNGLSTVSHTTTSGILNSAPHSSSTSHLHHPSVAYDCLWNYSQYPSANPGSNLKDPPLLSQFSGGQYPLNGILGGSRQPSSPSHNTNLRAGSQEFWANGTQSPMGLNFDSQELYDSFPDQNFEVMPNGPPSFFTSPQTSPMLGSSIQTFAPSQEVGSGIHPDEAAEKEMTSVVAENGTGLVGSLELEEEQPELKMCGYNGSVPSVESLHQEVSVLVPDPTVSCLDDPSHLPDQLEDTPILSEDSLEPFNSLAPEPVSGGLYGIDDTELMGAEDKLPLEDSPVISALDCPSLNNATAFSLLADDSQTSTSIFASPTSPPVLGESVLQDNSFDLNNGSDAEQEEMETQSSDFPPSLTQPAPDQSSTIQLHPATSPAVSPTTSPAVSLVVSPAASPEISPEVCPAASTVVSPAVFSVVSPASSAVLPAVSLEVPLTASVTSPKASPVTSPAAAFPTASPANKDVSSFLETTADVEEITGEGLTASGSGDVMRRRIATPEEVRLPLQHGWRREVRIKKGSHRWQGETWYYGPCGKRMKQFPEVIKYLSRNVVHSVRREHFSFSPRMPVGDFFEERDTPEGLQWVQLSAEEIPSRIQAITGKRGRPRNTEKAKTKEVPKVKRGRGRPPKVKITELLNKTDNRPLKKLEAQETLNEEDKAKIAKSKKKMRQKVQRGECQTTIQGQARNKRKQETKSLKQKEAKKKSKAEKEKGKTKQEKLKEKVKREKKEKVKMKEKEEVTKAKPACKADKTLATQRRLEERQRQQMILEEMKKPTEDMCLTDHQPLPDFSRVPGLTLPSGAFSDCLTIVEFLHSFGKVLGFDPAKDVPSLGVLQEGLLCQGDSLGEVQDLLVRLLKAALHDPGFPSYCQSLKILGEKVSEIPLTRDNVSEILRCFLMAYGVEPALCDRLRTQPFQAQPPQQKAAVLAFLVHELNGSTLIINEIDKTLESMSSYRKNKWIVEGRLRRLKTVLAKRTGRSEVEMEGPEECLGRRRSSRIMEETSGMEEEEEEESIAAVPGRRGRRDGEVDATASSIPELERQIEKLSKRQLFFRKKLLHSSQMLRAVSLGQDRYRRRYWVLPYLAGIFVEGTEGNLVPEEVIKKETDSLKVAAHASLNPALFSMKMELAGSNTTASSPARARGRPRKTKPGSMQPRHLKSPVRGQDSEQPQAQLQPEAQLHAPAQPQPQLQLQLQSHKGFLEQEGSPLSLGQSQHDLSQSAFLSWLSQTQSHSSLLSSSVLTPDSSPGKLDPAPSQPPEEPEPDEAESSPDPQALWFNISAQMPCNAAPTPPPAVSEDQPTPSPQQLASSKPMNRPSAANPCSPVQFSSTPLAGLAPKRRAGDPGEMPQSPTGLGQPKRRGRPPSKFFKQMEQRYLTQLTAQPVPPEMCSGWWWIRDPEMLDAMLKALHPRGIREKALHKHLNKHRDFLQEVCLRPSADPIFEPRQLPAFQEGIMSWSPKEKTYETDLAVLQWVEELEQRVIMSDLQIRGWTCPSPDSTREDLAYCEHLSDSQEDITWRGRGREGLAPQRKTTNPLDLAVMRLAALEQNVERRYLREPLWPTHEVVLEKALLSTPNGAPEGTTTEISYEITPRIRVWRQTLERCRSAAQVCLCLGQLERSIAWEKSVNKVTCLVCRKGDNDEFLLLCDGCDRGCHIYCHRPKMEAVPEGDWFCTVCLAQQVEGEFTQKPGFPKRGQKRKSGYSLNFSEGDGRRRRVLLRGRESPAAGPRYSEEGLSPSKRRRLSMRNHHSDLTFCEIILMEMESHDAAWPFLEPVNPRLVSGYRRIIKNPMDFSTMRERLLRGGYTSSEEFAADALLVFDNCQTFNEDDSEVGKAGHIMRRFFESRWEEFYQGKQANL
As to the kind of experiment: BROMOscan competition binding assay (BromoMAX, Eurofins DiscoverX). The settings on record: for Percent Control BAZ2A: compound concentration 1000 nM, lower percentage control = stronger affinity.

For a further test, the target named is T4, BRD1 (Homo sapiens, UniProt O95696).
T4 construct: purchased Eurofins DiscoverX (BROMOscan, BromoMAX)
T4 sequence (O95696 1-1058): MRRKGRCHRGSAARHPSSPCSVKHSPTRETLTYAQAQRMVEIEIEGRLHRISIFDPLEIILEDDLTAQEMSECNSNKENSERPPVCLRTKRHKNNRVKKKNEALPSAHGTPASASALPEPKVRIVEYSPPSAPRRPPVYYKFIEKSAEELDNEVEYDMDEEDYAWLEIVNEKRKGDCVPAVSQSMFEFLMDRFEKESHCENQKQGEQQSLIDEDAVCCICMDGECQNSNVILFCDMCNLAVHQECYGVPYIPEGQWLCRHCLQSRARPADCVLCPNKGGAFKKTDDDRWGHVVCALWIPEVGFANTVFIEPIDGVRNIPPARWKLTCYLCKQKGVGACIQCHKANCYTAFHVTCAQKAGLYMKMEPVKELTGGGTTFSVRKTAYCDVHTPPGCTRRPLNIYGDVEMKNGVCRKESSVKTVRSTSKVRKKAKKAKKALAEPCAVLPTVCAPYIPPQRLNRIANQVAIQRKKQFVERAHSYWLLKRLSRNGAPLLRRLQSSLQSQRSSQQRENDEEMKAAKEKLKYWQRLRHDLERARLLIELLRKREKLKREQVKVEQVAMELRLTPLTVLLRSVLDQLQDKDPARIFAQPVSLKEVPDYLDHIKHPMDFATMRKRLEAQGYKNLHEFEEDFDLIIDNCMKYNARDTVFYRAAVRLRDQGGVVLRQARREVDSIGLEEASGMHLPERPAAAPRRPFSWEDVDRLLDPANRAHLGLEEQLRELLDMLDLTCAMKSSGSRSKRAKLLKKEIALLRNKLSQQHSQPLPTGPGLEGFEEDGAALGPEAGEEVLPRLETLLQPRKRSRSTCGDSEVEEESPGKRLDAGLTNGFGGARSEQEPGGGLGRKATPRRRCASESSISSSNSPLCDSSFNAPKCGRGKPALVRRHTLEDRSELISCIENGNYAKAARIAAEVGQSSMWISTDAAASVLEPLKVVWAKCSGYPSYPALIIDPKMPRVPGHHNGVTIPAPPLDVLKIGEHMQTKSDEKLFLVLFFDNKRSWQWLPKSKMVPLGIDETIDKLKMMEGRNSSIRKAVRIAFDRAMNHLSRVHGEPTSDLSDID
The description is as above. The settings on record: for Percent Control BRD1: compound concentration 1000 nM, lower percentage control = stronger affinity.

Another test deals with T5, BRD2(1) (Homo sapiens, UniProt P25440).
T5 construct: BRD2(1); purchased Eurofins DiscoverX (BROMOscan, BromoMAX)
T5 sequence (P25440 71-194 limits assumed): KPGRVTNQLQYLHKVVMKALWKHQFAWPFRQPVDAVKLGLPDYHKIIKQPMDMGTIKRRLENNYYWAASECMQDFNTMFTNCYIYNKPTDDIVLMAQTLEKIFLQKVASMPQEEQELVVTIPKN
Described as above. The settings on record: for Percent Control BRD2(1): compound concentration 1000 nM, lower percentage control = stronger affinity.

The target in another test is T6, BRDT(2) (Homo sapiens, UniProt Q58F21).
T6 construct: BRDT(2); purchased Eurofins DiscoverX (BROMOscan, BromoMAX)
The description is as above. As to conditions: for Percent Control BRDT(2): compound concentration 1000 nM, lower percentage control = stronger affinity.

A further test concerns the target T7, EP300 (Homo sapiens, UniProt Q09472).
T7 construct: purchased Eurofins DiscoverX (BROMOscan, BromoMAX)
Described as above. The settings on record: for Percent Control EP300: compound concentration 1000 nM, lower percentage control = stronger affinity.

The next test deals with T8, PBRM1(2) (Homo sapiens, UniProt Q86U86).
T8 construct: PBRM1(2); purchased Eurofins DiscoverX (BROMOscan, BromoMAX)
T8 sequence (Q86U86 178-291 limits assumed): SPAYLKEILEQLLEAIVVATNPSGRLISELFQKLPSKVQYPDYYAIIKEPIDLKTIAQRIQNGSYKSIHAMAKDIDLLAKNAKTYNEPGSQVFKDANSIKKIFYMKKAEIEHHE
Described as above. The settings on record: for Percent Control PBRM1(2): compound concentration 1000 nM, lower percentage control = stronger affinity.

Another test addresses T9, TAF1(2) (Homo sapiens, UniProt P21675).
T9 construct: TAF1(2); purchased Eurofins DiscoverX (BROMOscan, BromoMAX)
T9 sequence (P21675 1521-1656 limits assumed): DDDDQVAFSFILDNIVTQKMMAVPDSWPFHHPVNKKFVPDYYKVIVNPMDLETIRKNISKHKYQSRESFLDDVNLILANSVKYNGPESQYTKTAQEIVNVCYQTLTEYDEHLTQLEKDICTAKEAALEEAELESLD
The description is as above. As to conditions: for Percent Control TAF1(2): compound concentration 1000 nM, lower percentage control = stronger affinity.

Where [1] appears, read: 4 C, geometric mean and SD of two to five measurements.
The mark [2] stands for this setting: gray boxed value: no reproducible signals observed at the concentrations used.

Where a SMILES comes first, the peptide text is derived from it. Bridges are numbered along the chain shown (N, C = ends).

T7 sequence (Q09472 whole entry): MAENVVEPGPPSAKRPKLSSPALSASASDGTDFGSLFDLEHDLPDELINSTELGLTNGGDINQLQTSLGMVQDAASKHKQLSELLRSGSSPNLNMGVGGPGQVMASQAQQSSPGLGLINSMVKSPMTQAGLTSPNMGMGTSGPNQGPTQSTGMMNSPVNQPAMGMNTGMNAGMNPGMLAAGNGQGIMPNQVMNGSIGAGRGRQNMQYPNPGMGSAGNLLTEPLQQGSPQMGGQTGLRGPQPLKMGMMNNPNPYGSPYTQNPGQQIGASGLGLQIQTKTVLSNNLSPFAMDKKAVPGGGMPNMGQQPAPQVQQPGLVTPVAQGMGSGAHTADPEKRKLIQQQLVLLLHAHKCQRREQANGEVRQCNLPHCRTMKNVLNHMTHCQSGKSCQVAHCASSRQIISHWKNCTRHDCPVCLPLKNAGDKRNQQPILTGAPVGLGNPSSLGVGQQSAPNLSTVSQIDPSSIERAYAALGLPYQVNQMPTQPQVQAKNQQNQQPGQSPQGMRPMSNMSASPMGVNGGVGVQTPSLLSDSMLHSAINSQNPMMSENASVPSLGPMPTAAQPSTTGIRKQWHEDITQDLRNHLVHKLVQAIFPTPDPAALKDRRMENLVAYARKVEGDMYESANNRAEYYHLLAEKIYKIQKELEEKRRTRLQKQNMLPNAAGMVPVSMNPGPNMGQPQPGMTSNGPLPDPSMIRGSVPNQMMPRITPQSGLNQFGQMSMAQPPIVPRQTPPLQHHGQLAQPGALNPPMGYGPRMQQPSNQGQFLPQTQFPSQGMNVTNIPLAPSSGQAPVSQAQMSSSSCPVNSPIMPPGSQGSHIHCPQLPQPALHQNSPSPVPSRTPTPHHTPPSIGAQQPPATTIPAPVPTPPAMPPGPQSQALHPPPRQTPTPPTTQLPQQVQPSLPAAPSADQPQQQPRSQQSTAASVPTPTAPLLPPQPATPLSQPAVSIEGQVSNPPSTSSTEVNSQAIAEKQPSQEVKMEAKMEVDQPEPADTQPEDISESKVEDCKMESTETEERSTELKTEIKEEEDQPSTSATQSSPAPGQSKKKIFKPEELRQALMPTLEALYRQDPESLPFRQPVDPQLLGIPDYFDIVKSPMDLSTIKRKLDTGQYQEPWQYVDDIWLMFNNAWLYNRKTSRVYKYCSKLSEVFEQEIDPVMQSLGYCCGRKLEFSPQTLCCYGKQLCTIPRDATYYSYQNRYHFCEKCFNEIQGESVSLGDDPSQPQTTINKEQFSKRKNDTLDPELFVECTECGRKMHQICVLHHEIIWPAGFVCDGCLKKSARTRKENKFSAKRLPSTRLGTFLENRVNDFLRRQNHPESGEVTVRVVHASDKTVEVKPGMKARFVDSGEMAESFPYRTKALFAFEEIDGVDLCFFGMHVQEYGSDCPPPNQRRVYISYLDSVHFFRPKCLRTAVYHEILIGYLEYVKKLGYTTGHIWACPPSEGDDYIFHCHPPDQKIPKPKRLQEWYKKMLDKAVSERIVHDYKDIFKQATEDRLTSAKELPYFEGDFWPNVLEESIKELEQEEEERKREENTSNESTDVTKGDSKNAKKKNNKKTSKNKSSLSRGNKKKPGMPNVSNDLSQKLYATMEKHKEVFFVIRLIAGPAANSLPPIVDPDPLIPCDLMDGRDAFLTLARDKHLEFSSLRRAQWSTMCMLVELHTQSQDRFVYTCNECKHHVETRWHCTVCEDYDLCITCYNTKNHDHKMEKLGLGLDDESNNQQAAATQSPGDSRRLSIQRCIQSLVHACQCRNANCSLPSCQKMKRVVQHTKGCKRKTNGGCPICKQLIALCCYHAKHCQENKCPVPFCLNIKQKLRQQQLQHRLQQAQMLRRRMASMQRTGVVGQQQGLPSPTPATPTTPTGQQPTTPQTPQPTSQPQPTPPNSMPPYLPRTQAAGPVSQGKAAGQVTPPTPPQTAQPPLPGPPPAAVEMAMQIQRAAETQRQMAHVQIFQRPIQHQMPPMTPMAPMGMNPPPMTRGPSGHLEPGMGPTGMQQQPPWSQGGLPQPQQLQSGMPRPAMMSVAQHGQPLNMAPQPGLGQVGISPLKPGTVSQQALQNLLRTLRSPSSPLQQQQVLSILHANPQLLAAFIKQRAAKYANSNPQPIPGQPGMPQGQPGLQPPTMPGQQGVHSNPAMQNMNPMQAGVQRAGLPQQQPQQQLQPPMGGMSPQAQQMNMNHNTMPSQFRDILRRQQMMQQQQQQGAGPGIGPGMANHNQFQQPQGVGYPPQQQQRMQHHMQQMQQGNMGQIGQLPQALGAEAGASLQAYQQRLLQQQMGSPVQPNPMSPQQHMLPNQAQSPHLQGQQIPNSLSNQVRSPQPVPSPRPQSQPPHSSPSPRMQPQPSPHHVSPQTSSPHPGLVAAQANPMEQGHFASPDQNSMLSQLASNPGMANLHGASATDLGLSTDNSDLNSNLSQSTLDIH
T1 sequence (P25440 347-455): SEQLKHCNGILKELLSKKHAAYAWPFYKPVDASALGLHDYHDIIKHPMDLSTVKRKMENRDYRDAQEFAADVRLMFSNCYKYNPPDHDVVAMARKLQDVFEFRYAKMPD
T2 sequence (Q15059 25-147): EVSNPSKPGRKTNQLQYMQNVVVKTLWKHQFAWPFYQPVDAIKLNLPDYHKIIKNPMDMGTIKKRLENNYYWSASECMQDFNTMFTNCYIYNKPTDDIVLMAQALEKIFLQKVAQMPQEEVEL

As a reminder, the Kd is a measure of binding affinity in units of concentration. Read a low Kd as tighter binding. As to `CC[C@H](C)[C@H](NC(=O)[C@H](CCCNC(=N)N)NC(=O)[C@H](CCCCNC(C)=O)NC(=O)[C@H](CCCNC(=N)N)NC(=O)[C@H](CC(C)C)NC(=O)[C@@H]1CSCC(=O)N[C@@H](Cc2c[nH]c3ccccc23)C(=O)N[C@@H](CCCCNC(C)=O)C(=O)NCC(=O)N[C@@H](Cc2ccc(O)cc2)C(=O)N[C@@H](CC(C)C)C(=O)N1)C(=O)N[C@@H](CCC(N)=O)C(=O)N[C@@H](CCCNC(=N)N)C(=O)N[C@H](C(=O)N[C@@H](Cc1ccc(O)cc1)C(=O)N[C@@H](CC(N)=O)C(N)=O)[C@@H](C)O` [4.2C] ({CH2CO}-WK(Ac)GYLCLRK(Ac)RIQRTYN-NH2; thioether N-6), the results for the dissociation constant Kd on BRD2-BD2 (setting [1]) and on BRD3-BD1 (setting [2]) were 22 ± 26 nM and more than 10000 nM, respectively. For the same molecule, the remaining binding at 1 µM at BAZ2A (read-out: Percent Control BAZ2A), on EP300 (read-out: Percent Control EP300) and at PBRM1(2) (read-out: Percent Control PBRM1(2)) was 100% each time. The percent of control binding at 1 µM on BRD1 came to 84%; on BRD2(1), 85%; at BRDT(2), 92%; on TAF1(2), 67%.
Consider `CC[C@H](C)[C@@H]1NC(=O)[C@H]([C@@H](C)O)NC(=O)[C@H](CCCCN)NC(=O)[C@H](Cc2c[nH]c3ccccc23)NC(=O)CSC[C@@H](C(N)=O)NC(=O)[C@H](CCC(N)=O)NC(=O)[C@H](CCCCNC(C)=O)NC(=O)[C@H]([C@@H](C)O)NC(=O)[C@H](CCCNC(=N)N)NC(=O)[C@H](Cc2c[nH]c3ccccc23)NC(=O)[C@H]([C@@H](C)O)NC(=O)[C@H](CCCCNC(C)=O)NC(=O)CNC(=O)[C@H](CCCCNC(C)=O)NC1=O` [3.1B] ({CH2CO}-WKTIK(Ac)GK(Ac)TWRTK(Ac)QC-NH2; thioether N-14), for which the Kd on BRD2-BD2 (setting [2]) is more than 10000 nM; at BRD3-BD1 (setting [1]), 0.49 ± 0.63 nM. Besides, on BAZ2A, the “Percent Control BAZ2A” value is 15%. Further, at BRD1, the “Percent Control BRD1” value is recorded as 100%. Moreover, the “Percent Control BRD2(1)” value on BRD2(1) is listed as 21%. For the same molecule, the “Percent Control BRDT(2)” value at BRDT(2) was 100%. The “Percent Control EP300” value on EP300 was 100%. Further, the “Percent Control PBRM1(2)” value at PBRM1(2) was determined as 100%. In addition, on TAF1(2), the “Percent Control TAF1(2)” value came to 82%.
As for `CC[C@H](C)[C@@H]1NC(=O)[C@H](Cc2c[nH]c3ccccc23)NC(=O)[C@H](Cc2c[nH]c3ccccc23)NC(=O)CSC[C@@H](C(N)=O)NC(=O)CNC(=O)[C@H](CCCCNC(C)=O)NC(=O)[C@H](CCCCN)NC(=O)[C@H](C(C)C)NC(=O)[C@H](CCCCNC(C)=O)NC(=O)[C@@H]2CCCN2C(=O)[C@H]([C@@H](C)CC)NC1=O` [3.1C] ({CH2CO}-WWIIPK(Ac)VKK(Ac)GC-NH2; thioether N-11), the Kd at BRD2-BD2 (setting [1]) is 9.2 ± 25 nM; on BRD3-BD1 (setting [1]), 0.08 ± 0.049 nM. Moreover, the “Percent Control BAZ2A” value at BAZ2A worked out at 99%. Also, at BRD1, the “Percent Control BRD1” value is 97%. Besides, on BRD2(1), the “Percent Control BRD2(1)” value came out at 2.4%. Further, the “Percent Control BRDT(2)” value on BRDT(2) stood at 4.9%. Further, the “Percent Control EP300” value at EP300 amounted to 100%. Besides, the “Percent Control PBRM1(2)” value on PBRM1(2) is reported as 100%. At TAF1(2), the “Percent Control TAF1(2)” value is recorded as 79%.

Values taken from publication PMC7604503, “Cyclic peptides can engage a single binding pocket through highly divergent modes” (Proceedings of the National Academy of Sciences of the …, 2020).
